Results on four compounds are retold here after patent US8642807B2, “Crystallized diacetylenic indicator compounds and methods of preparing the compounds” (Temptime Corporation, priority 2007, dated 2014).

Data set [1] can be described thus: Comparative color-change reactivities of pressed pellets, cyan optical density after ageing at 37, 45 or 70° C. (Example 4). The format is physicochemical. Particulars: for color change kinetics / reactivity relative to raw product: 37° C., FIG. 12; for activation energy: color-change (solid-state polymerization) reaction of pellets. On the procedure:
Sample pellets are prepared from crystalline diacetylenic monomer powder using an E-Z Press 12-Ton Hydraulic Press and KBr Pellet Kit with 13 mm die set, as supplied by International Crystal Laboratories (Garfield, N.J.). Using about 300 mg powder, a pressure of 5 to 8 tons is applied for 2-3 minutes. Samples of 2,4-hexadiyn-1,6-bis(ethylurea) precipitated from dimethyl sulfoxide, methanol and a 4:1 by weight ethanol/water mixture are prepared. Pellets of raw 2,4-hexadiyn-1,6-bis(ethylurea) crystals (“KE raw”), precipitated from a solution in hot glacial acetic acid, using methanol as a precipitant, shortly after the 2,4-hexadiyn-1,6-bis(ethylurea) was synthesized, are included as controls.
While being handled by the edges, an individual pellet is placed in a transparent heat-seal bag, about 50 mm by 115 mm, vacuum sealed and placed into a heat-sealable foil pouch. The foil pouch is vacuum-sealed using a Fuji Impulse tabletop vacuum heat sealer. The sealed foil pouch containing the pellets is stored in a freezer at −30° C., or other suitable temperature, until ready for testing.
The heat-sealed foil pouch samples containing the pellets are placed in a water bath, for example a Huber circulating water bath, set to appropriate temperatures for example 37° C., 45° C. or 70° C., and aged for suitable measured time periods such as a few days at 37° C. or a few hours at 70° C. where the reaction proceeds more rapidly. The samples are weighted to keep them immersed in the water during the test. Timing is started immediately after each pouch is placed into the water bath. The pouch is removed at the end of the designated test period and its optical density is measured.
To measure optical density the pouch is briefly immersed in a second water bath set at 20° C. to quench the sample and prevent further color change during measurement. The foil pouch is cut open leaving the pellet inside the transparent heat-sealed bag. The reaction kinetics of the diacetylenic monomer are determined by measuring the cyan optical density (O.D.) of the aged pellets using an X-Rite 404 color reflection densitometer. The optical density can be measured on an arbitrary scale and used for comparative indications of color change reactivity.
In order to compensate for the thickness of the pellets, which are about 2 mm thick, when using the densitometer, the densitometer can be raised on to an elevated platform of corresponding height.

The nature of data set [2]: Room temperature solubility of 4DOD in solvent systems, saturated solution dried and weighed (Example 2A). The format is physicochemical. The following applies: about 25° C.; for Calculated solubility of 4DOD: stirred 16 hours. As to the method: To serve as indicator agent, a […] polymerizable diacetylenic monomer, namely 5,7-dodecadiyn-1,12 diol bis(n-octadecyl urethane), “4DOD” hereinafter, is synthesized in sufficient quantity for preparation of a master batch of ink, by the method described in Yee U.S. Pat. No. 4,215,208 at column 17, lines 47-65 and is stored in a freezer. A small quantity of 4DOD is taken from frozen storage and is tested at room temperature for solubility in various solvent systems employing the following procedure.
100 g of deionized water is weighed into a 200 mL glass beaker. 4DOD powder is added to the glass beaker until the solution is saturated allowing excess 4DOD to remain present as undissolved solid. 75 g of deionized water is weighed into another 200 mL glass beaker, and 25 g acetone is added. 4DOD is then added to the water-acetone solvent system in the glass beaker until the solution is saturated and an excess of 4DOD remains as undissolved solid. 75 g of deionized water is weighed into a third 200 mL glass beaker. 25 g ethanol is added to the water and then 4DOD is added to the water-ethanol mixture until the solution is saturated and an excess of 4DOD remains as undissolved solid. Each solution is stirred on a magnetic plate for 16 hours at a controlled room temperature of about 25° C.
After 16 hours of stirring, 7 g of each solution (soluble portion only, avoiding any undissolved solid material) is transferred to a separate aluminum foil pan. The aluminum foil pans are left to stand under a fume hood for 2 hours to allow any volatile solvent to evaporate, and are then dried in a vacuum oven for one 1 hour. Each aluminum foil pan is then weighed and the solubility of the 4DOD in each solvent system is calculated in terms of the percent of solute based on the weight of the solvent system.

As for `CCNC(=O)NCC#CC#CCNC(=O)NCC` [2,4-hexadiyn-1,6-bis(ethylurea) crystallized from pyridine], in data set [1], the “color change kinetics / reactivity relative to raw product” value is given as “faster color change kinetics than does the raw product” and the activation energy entry is recorded as “about 19 kcal/mol”.

As to “5,7-dodecadiyn-1,12-bis-n-octadecyl urethane [4DOD]”, the “Calculated solubility of 4DOD” value was 10% wt % in data set [2] (75% Water 25% Acetone), 32% wt % in data set [2] (100% Acetone), 37% wt % in data set [2] (100% Ethanol) and 0.03% wt % in data set [2] (Water). The “solubility in the individual organic solvent alone, in words” value in data set [2] (ethanol or acetone alone) is on record as “remarkably high solubility”. Besides, the “solubility in water, in words” value in data set [2] (water) was “minimal solubility”.

The compound `CCNC(=O)NCC#CC#CCNC(=O)NCC` [raw product, 2,4-hexadiyn-1,6-bis(ethylurea), reference compound] returned an activation energy in data set [1] of 23 kcal/mol.

Regarding `CCNC(=O)NCC#CC#CCNC(=O)NCC` [2,4-hexadiyn-1,6-bis(ethylurea)], in data set [1], the “color change kinetics / reactivity relative to raw product” value is on record as “modestly faster reactivity than raw 2,4-hexadiyn-1,6-bis(ethylurea)”. For the same compound, the reactivity profile entry in data set [1] (45° C., FIG. 13) was “close to that of the pyridine product”.
